Data set [1] addresses T1, Replicase polyprotein 1ab (Severe acute respiratory syndrome coronavirus 2, UniProt P0DTD1). As to the kind of experiment: Inhibition of full length SARS CoV-2 main protease expressed in Escherichia coli BL21 (DE3) expression system using Mca-AVLQSGFR-K(Dnp)K as substrate by fluorescence method.
The nature of data set [2]: Stability of the compound assessed as glutathione reactivity by measuring reduction at pH 7.4 by HPLC/MS method. In kind it is physicochemical. Conditions: buffer.
Data set [3] deals with T1, Replicase polyprotein 1ab. The data set is described as follows: Inhibition of recombinant his tagged SARS CoV-2 main protease expressed in Escherichia coli BL21 using Boc-Abu-Tle-Leu-Gln-AMC37 as fluorogenic substrate pre-incubated for 5 mins followed by substrate addition measured after 60 mins by FRET based assay.
Data set [4] has as its target T1, Replicase polyprotein 1ab. As to the kind of experiment: Inhibition of recombinant his tagged SARS CoV-2 main protease expressed in Escherichia coli BL21 assessed as inhibition constant using Boc-Abu-Tle-Leu-Gln-AMC37 as fluorogenic substrate pre-incubated for 5 mins followed by substrate addition measured after 60 mins by FRET based assay.
In data set [5] the target is Replicase polyprotein 1ab (Severe acute respiratory syndrome coronavirus 2) (UniProt P0DTD1). The data set is described as follows: Time dependent inhibition of recombinant his tagged SARS CoV-2 main protease expressed in Escherichia coli BL21 assessed as ratio of Kinact/Ki using MCA-AVLQSGFR-K(DNP)-K-NH2 as substrate pre-incubated for 5 mins followed by substrate addition measured after 60 mins by FRET based assay.

Data set [6] addresses T1, Replicase polyprotein 1ab. As to the kind of experiment: Inhibition of SARS CoV-2 main protease.

Structures are written as SMILES.

The term IC50 denotes the point on the concentration scale where inhibition reaches its midpoint. In general, Ki refers to the equilibrium dissociation constant of an inhibitor or competing ligand from its target.

For `O=C(NCCN1C(=O)C=CC1=O)c1cc2ccccc2[nH]1`, half-maximal inhibition in data set [1] (IC50) required 2080 nM.

As to `O=C(Sc1nc2ccccc2s1)c1ccc2ccccc2n1`, in data set [2], the Stability entry is reported as “Stable”. In addition, in data set [3], the IC50 was 88.9 nM. The inhibition constant (Ki) in data set [4] is 51 nM. For the same compound, the Ratio in data set [5] was found to be 5450 M⁻¹ s⁻¹. In turn, `Oc1ccc2ccccc2c1SSc1c(O)ccc2ccccc12` returned an IC50 in data set [1] of 2350 nM.

The compound `S=C(SSC(=S)N1CCOCC1)N1CCOCC1` displayed an IC50 in data set [6] of 4030 nM.
